# Experimental data published in ChEMBL document CHEMBL1133283, “Arylsulfonyl-N,N-diethyl-dithiocarbamates: a novel class of antitumor agents” (Bioorg Med Chem Lett, 2000).
# Columns and labels:
# NCI-H226 = test: In vitro growth inhibition of compound was determined against NCI-H226 cell lines of non-small cell lung cancer; format: functional; details: Homo sapiens
# Hs-578T = test: In vitro growth inhibition of compound was determined against Hs 578.T cell lines of Breast cancer; format: functional; details: Homo sapiens
# KM12 = test: In vitro growth inhibition of compound was determined against KM12 cell lines of colon cancer; format: functional; details: Homo sapiens
# HOP-92 = test: In vitro growth inhibition of compound was determined against HOP-92 cell lines of non-small cell lung cancer; format: functional; details: Homo sapiens
# MDA-MB-231 = test: In vitro growth inhibition of compound was determined against MDA-MB-231/ATCC cell lines of Breast cancer; format: functional; details: Homo sapiens
# SF-295 = test: In vitro growth inhibition of compound was determined against SF-295 cell lines of CNS cancer; format: functional; details: Homo sapiens
# CAKI-1 = test: In vitro growth inhibition of compound was determined against CAKI-1 cell lines of Renal cancer; format: functional; details: Homo sapiens
# OVCAR-3 = test: In vitro growth inhibition of compound was determined against OVCAR-3 cell lines of Ovarian cancer; format: functional; details: Homo sapiens
# MDA-MB-435 = test: In vitro growth inhibition of compound was determined against MDA-MB-435 cell lines of Breast cancer; format: functional; details: Homo sapiens
# A549 = test: In vitro growth inhibition of compound was determined against A549/ATCC cell lines of non-small cell lung cancer; format: functional; details: Homo sapiens
# HL-60 = test: In vitro growth inhibition of compound was determined against HL-60(TB) cell lines of Leukemia; format: functional; details: Homo sapiens
# 786-0 = test: In vitro growth inhibition of compound was determined against […] cell lines of Renal cancer; format: functional; details: Homo sapiens
# MOLT-4 = test: In vitro growth inhibition of compound was determined against MOLT-4 cell lines of Leukemia; format: functional; details: Homo sapiens
# LOX IMVI = test: In vitro growth inhibition of compound was determined against LOX IMVI cell lines of Melanoma; format: functional; details: Homo sapiens
# SNB-75 = test: In vitro growth inhibition of compound was determined against SNB-75 cell lines of CNS cancer; format: functional; details: Homo sapiens
# M14 = test: In vitro growth inhibition of compound was determined against M14 cell lines of Melanoma; format: functional; details: Homo sapiens
# SK-MEL-28 = test: In vitro growth inhibition of compound was determined against SK-MEL-28 cell lines of Melanoma; format: functional; details: Homo sapiens
# RXF 393 = test: In vitro growth inhibition of compound was determined against RXF393 cell lines of Renal cancer; format: functional; details: Homo sapiens
# NCI/ADR-RES = test: In vitro growth inhibition of compound was determined against NCI/ADR-RES cell lines of Breast cancer; format: functional; details: Homo sapiens
# HCT-116 = test: In vitro growth inhibition of compound was determined against HCT116 cell lines of colon cancer; format: functional; details: Homo sapiens
# IGROV-1 = test: In vitro growth inhibition of compound was determined against IGROVI cell lines of Ovarian cancer; format: functional; details: Homo sapiens
# BT-549 = test: In vitro growth inhibition of compound was determined against BT-549 cell lines of Breast cancer; format: functional; details: Homo sapiens
# Malme-3M = test: In vitro growth inhibition of compound was determined against MALME-3M cell lines of Melanoma; format: functional; details: Homo sapiens
# OVCAR-4 = test: In vitro growth inhibition of compound was determined against OVCAR-4 cell lines of Ovarian cancer; format: functional; details: Homo sapiens
# CCRF-CEM = test: In vitro growth inhibition of compound was determined against CCRF-CEM cell lines of Leukemia; format: functional; details: Homo sapiens
# SW-620 = test: In vitro growth inhibition of compound was determined against SW-620 cell lines of colon cancer; format: functional; details: Homo sapiens
# SN12C = test: In vitro growth inhibition of compound was determined against SN12C cell lines of Renal cancer; format: functional; details: Homo sapiens
# MDA-N = test: In vitro growth inhibition of compound was determined against MDA-Ncell lines of Breast cancer; format: functional; details: Homo sapiens
# UO-31 = test: In vitro growth inhibition of compound was determined against UO-31 cell lines of Renal cancer; format: functional; details: Homo sapiens
# OVCAR-8 = test: In vitro growth inhibition of compound was determined against OVCAR-8 cell lines of Ovarian cancer; format: functional; details: Homo sapiens
# TK-10 = test: In vitro growth inhibition of compound was determined against TK-10 cell lines of Renal cancer; format: functional; details: Homo sapiens
# K562 = test: In vitro growth inhibition of compound was determined against K-562 cell lines of Leukemia; format: functional; details: Homo sapiens
# SF-268 = test: In vitro growth inhibition of compound was determined against SF-268 cell lines of CNS cancer; format: functional; details: Homo sapiens
# U-251 = test: In vitro growth inhibition of compound was determined against U251 cell lines of CNS cancer; format: functional; details: Homo sapiens
# HCT-15 = test: In vitro growth inhibition of compound was determined against HCT-15 cell lines of colon cancer; format: functional; details: Homo sapiens
# UACC-257 = test: In vitro growth inhibition of compound was determined against UACC-257 cell lines of Melanoma; format: functional; details: Homo sapiens
# ACHN = test: In vitro growth inhibition of compound was determined against ACHN cell lines of Renal cancer; format: functional; details: Homo sapiens
# SR = test: In vitro growth inhibition of compound was determined against SR cell lines of Leukemia; format: functional; details: Homo sapiens
# HOP-62 = test: In vitro growth inhibition of compound was determined against HOP-62 cell lines of non-small cell lung cancer; format: functional; details: Homo sapiens
# COLO 205 = test: In vitro growth inhibition of compound was determined against COLO-205 cell lines of colon cancer; format: functional; details: Homo sapiens
# MCF7 = test: In vitro growth inhibition of compound was determined against MCF-7 cell lines of Breast cancer; format: functional; details: Homo sapiens
# NCI-H522 = test: In vitro growth inhibition of compound was determined against NCI-H522 cell lines of non-small cell lung cancer; format: functional; details: Homo sapiens
# SK-MEL-5 = test: In vitro growth inhibition of compound was determined against SK-MEL-5 cell lines of Melanoma; format: functional; details: Homo sapiens
# HCC 2998 = test: In vitro growth inhibition of compound was determined against HCC2998 cell lines of colon cancer; format: functional; details: Homo sapiens
# RPMI-8226 = test: In vitro growth inhibition of compound was determined against RPMI-8226 cell lines of Leukemia; format: functional; details: Homo sapiens
# DU-145 = test: In vitro growth inhibition of compound was determined against DU-145 cell lines of Prostate cancer; format: functional; details: Homo sapiens
# Carbonic anhydrase 2 = Carbonic anhydrase 2 (Homo sapiens, UniProt P00918); test: Binding affinity of compound against human Carbonic anhydrase II
# HT-29 = test: In vitro growth inhibition of compound was determined against HT-29 cell lines of colon cancer; format: functional; details: Homo sapiens
# PC-3 = test: In vitro growth inhibition of compound was determined against PC-3 cell lines of Prostate cancer; format: functional; details: Homo sapiens
smiles,measurement,setting,value
CCN(CC)C(=S)SS(=O)(=O)c1ccc(NC(C)=O)cc1,GI50,NCI-H226,35 µM
same,GI50,Hs-578T,60 µM
same,GI50,KM12,13 µM
same,GI50,HOP-92,16 µM
same,GI50,MDA-MB-231,20 µM
same,GI50,SF-295,28 µM
same,GI50,CAKI-1,16 µM
same,GI50,OVCAR-3,31 µM
same,GI50,MDA-MB-435,19 µM
same,GI50,A549,0.2 µM
same,GI50,HL-60,24 µM
same,GI50,786-0,17 µM
same,GI50,MOLT-4,48 µM
same,GI50,LOX IMVI,14 µM
same,GI50,SNB-75,32 µM
same,GI50,M14,15 µM
same,GI50,SK-MEL-28,15 µM
same,GI50,RXF 393,11 µM
same,GI50,NCI/ADR-RES,27 µM
same,GI50,HCT-116,15 µM
same,GI50,IGROV-1,12 µM
same,GI50,BT-549,61 µM
same,GI50,Malme-3M,16 µM
same,GI50,OVCAR-4,22 µM
same,GI50,CCRF-CEM,20 µM
same,GI50,SW-620,16 µM
same,GI50,SN12C,18 µM
same,GI50,MDA-N,21 µM
same,GI50,UO-31,20 µM
same,GI50,OVCAR-8,15 µM
same,GI50,TK-10,48 µM
same,GI50,K562,69 µM
same,GI50,SF-268,44 µM
same,GI50,U-251,15 µM
same,GI50,HCT-15,28 µM
same,GI50,UACC-257,9 µM
same,GI50,ACHN,27 µM
same,GI50,SR,0.01 µM
same,GI50,HOP-62,18 µM
same,GI50,COLO 205,22 µM
same,GI50,MCF7,18 µM
same,GI50,NCI-H522,< 0.01 µM
same,GI50,SK-MEL-5,0.4 µM
same,GI50,HCC 2998,27 µM
same,GI50,RPMI-8226,18 µM
same,GI50,DU-145,23 µM
NS(=O)(=O)c1ccc(CNSC(=S)N2CCOCC2)cc1,Ki,Carbonic anhydrase 2,0.035 µM
NS(=O)(=O)c1ccc(CCNSC(=S)N2CCOCC2)cc1,Ki,Carbonic anhydrase 2,0.035 µM
CCN(CC)C(=S)SS(=O)(=O)c1ccccc1[N+](=O)[O-],GI50,NCI-H226,36 µM
same,GI50,Hs-578T,29 µM
same,GI50,KM12,12 µM
same,GI50,HOP-92,14 µM
same,GI50,MDA-MB-231,16 µM
same,GI50,SF-295,32 µM
same,GI50,CAKI-1,17 µM
same,GI50,OVCAR-3,22 µM
same,GI50,MDA-MB-435,18 µM
same,GI50,A549,3 µM
same,GI50,HL-60,0.2 µM
same,GI50,786-0,19 µM
same,GI50,MOLT-4,0.4 µM
same,GI50,LOX IMVI,16 µM
same,GI50,SNB-75,76 µM
same,GI50,M14,11 µM
same,GI50,SK-MEL-28,13 µM
same,GI50,HT-29,14 µM
same,GI50,RXF 393,15 µM
same,GI50,NCI/ADR-RES,30 µM
same,GI50,HCT-116,15 µM
same,GI50,IGROV-1,0.5 µM
same,GI50,BT-549,26 µM
same,GI50,Malme-3M,10 µM
same,GI50,OVCAR-4,23 µM
same,GI50,CCRF-CEM,2.5 µM
same,GI50,SW-620,15 µM
same,GI50,SN12C,18 µM
same,GI50,MDA-N,19 µM
same,GI50,UO-31,13 µM
same,GI50,PC-3,54 µM
same,GI50,OVCAR-8,18 µM
same,GI50,TK-10,29 µM
same,GI50,K562,11 µM
same,GI50,SF-268,26 µM
same,GI50,U-251,13 µM
same,GI50,HCT-15,34 µM
same,GI50,UACC-257,17 µM
same,GI50,ACHN,24 µM
same,GI50,SR,0.3 µM
same,GI50,HOP-62,20 µM
same,GI50,COLO 205,28 µM
same,GI50,MCF7,25 µM
same,GI50,NCI-H522,0.08 µM
same,GI50,SK-MEL-5,3 µM
same,GI50,HCC 2998,24 µM
same,GI50,RPMI-8226,15 µM
same,GI50,DU-145,19 µM
